Assay results published in patent publication US8455515B2, “Substituted 4-phenyltetrahydroisoquinolines, process for their preparation, pharmaceutical compositions and therapeutic use” (Sanofi, priority 2005, dated 2013).
Structures can show the parent of a compound that is named as a salt.

Tests used:
[1] = test system: imidazoline receptor; conditions: cited from earlier work
[2] = test system: adrenergic alpha-2 receptor; conditions: cited from earlier work
[3] = test system: hippocampus sections; test: long-term experiments on hippocampus sections (in vitro), weak tetanus early LTP in CA 1; design: species or system rats; conditions: rat hippocampus sections, 10 μM
[4] = target: T1, NHE (Homo sapiens, UniProt P48764); test: recovery of intracellular pH in LAP1 cells expressing NHE (FLIPR, BCECF); type: cell-based; conditions: LAP1 cells stably expressing NHE, pH recovery after acidification
T1 sequence (P48764 26-834): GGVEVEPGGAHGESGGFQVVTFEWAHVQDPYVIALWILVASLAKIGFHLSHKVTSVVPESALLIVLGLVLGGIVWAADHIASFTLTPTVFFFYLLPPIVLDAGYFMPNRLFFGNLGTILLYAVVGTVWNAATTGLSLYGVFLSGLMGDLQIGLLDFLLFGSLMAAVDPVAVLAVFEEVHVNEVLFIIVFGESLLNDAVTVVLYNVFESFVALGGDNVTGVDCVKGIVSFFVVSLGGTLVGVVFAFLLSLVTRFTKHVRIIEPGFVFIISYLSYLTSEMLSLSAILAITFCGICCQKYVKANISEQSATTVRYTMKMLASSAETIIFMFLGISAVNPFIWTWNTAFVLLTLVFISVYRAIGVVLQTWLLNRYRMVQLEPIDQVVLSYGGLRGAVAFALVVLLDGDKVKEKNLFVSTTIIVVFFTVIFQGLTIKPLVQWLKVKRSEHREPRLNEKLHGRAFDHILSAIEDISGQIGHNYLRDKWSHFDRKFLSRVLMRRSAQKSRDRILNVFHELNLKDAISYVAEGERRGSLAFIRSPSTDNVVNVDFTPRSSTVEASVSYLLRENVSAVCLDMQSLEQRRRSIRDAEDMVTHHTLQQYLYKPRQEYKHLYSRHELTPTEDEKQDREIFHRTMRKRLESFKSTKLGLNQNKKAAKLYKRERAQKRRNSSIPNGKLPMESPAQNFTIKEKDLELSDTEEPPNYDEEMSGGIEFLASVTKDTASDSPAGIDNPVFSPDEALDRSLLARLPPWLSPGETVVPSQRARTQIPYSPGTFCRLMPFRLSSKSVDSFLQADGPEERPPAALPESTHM
Procedure: NHE and NHE5 Test Description:
In this test, the recovery in the intracellular pH (pHi) of LAP1 cells, which stably express the different subtypes of the sodium-proton exchanger (NHE), after an acidification was determined. This recovery sets in even under bicarbonate-free conditions in the case of functioning NHE. To this end, the pHi was determined with the pH-sensitive fluorescent dye BCECF (Molecular Probes, Eugene, Oreg., USA; the precursor BCECF-AM is used). The cells were first incubated with BCECF (5 μM BCECF-AM) in NH4Cl buffer (NH4Cl buffer: 115 mM cholineCl, 20 mM NH4Cl, 5 mM KCl, 1 mM CaCl2, 1 mM MgCl2, 20 mM Hepes, 5 mM glucose; a pH of 7.4 is established with 1 M KOH). […] The pH recovery was started by the addition of 90 μl of Na^+-containing buffer (133.8 mM NaCl, 4.7 mM KCl, 1.25 mM CaCl2, 1.25 mM MgCl2, 0.97 mM Na2HPO4, 0.23 mM NaH2PO4, 10 mM Hepes, 5 mM glucose; a pH of 7.4 is established with 1 M NaOH) in the analytical instrument (FLIPR, “Fluorometric Imaging Plate Reader”, Molecular Devices, Sunnyvale, Calif., USA). The BCECF fluorescence was determined at an excitation wavelength of 498 nm and the FLIPR emission filter 1 (band gap from 510 to 570 nm). The subsequent changes in fluorescence were registered for NHE and NHE5 for two minutes as a measure of the pH recovery. […]

[5] = target: NHE-1 (Homo sapiens, UniProt P19634); test: inhibitory action on NHE subtypes: NHE-1; conditions: therapeutically utilizable concentration range
[6] = target: T2, NHE-2 (Homo sapiens, UniProt Q9UBY0); test: inhibitory action on NHE subtypes: NHE-2; conditions: therapeutically utilizable concentration range
T2 sequence (Q9UBY0 1-812): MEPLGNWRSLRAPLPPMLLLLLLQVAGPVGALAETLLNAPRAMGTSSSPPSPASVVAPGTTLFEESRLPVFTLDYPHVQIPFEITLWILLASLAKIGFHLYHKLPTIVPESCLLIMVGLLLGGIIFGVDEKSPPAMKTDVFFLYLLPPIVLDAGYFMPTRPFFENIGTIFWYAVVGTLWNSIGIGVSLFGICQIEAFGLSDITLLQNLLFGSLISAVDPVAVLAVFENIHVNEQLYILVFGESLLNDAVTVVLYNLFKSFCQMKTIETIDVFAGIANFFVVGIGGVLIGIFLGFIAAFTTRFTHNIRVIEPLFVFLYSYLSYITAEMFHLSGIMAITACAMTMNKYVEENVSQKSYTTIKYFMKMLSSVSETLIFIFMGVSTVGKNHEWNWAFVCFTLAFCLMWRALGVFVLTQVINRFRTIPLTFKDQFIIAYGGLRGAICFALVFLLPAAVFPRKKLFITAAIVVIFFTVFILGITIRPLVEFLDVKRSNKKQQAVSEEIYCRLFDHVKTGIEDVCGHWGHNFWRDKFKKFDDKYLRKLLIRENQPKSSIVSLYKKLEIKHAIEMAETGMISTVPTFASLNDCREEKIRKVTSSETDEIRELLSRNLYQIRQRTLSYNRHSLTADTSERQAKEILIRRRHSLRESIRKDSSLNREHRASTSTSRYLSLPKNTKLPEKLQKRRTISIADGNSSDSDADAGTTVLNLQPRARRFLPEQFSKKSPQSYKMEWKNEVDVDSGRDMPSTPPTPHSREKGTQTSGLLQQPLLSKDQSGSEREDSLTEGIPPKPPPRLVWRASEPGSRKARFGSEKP

[7] = target: T3, NHE-5 (Homo sapiens, UniProt Q14940); test: inhibitory action on NHE subtypes: NHE-5; conditions: therapeutically utilizable concentration range
T3 sequence (Q14940 1-896): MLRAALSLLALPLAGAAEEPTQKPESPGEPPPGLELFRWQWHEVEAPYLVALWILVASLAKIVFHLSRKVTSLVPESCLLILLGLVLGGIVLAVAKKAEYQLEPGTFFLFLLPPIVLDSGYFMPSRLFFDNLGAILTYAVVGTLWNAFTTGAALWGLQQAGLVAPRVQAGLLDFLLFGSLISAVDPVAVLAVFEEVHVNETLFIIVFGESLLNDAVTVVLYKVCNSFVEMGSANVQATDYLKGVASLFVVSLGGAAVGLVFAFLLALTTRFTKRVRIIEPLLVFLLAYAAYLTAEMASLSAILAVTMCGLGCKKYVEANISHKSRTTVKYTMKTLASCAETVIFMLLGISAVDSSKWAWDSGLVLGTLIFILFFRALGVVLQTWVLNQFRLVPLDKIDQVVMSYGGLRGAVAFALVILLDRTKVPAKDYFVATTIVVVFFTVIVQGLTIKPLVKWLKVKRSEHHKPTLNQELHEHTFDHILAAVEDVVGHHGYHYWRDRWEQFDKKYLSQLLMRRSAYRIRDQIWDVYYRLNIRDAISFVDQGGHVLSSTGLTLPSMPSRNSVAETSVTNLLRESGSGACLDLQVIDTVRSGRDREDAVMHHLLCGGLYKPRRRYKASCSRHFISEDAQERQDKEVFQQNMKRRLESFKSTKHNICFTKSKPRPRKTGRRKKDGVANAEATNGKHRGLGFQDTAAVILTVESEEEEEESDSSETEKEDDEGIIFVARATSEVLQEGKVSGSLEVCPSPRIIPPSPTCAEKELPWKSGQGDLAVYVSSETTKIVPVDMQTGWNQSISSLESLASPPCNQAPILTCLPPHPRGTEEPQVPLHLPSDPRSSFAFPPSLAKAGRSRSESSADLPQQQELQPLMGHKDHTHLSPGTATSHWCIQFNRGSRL

[8] = target: T1, NHE; test: inhibitory action on NHE subtypes: NHE; conditions: therapeutically utilizable concentration range

Chain of NHE-1 (P19634 whole entry, species assumed): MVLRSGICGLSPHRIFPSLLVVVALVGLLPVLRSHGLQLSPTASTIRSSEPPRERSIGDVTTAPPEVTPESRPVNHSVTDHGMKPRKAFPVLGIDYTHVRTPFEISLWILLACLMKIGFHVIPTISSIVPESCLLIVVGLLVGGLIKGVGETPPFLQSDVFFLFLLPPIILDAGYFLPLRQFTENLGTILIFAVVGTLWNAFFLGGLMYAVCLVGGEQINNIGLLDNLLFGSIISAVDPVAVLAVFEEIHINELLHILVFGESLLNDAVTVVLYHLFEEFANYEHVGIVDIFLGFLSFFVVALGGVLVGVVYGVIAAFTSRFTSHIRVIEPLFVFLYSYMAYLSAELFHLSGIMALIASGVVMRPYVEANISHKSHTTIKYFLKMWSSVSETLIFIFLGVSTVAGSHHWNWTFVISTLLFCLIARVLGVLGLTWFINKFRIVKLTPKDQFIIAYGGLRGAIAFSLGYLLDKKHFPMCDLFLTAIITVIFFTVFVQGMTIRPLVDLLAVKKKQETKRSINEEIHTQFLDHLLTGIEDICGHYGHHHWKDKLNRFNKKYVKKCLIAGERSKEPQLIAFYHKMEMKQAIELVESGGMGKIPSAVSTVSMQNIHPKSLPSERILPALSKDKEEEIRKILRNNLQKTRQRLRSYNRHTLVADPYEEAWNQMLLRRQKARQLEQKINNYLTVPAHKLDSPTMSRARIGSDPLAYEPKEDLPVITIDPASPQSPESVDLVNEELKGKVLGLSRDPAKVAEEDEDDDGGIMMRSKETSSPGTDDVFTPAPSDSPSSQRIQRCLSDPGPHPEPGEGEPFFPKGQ

CN1Cc2c(Cl)cc(Cl)cc2C(c2ccc(S(=O)(=O)N=C(N)N)cc2)C1 (stereo not shown) (as salt: hydrochloride) [Example 1, N-Diaminomethylene-4-(6,8-dichloro-2-methyl-1,2,3,4-tetrahydro-isoquinolin-4-yl)benzenesulfonamide, dihydrochloride]
melting point: 140 °C (dec.)

Clc1cccc(Cl)c1N=C1NCCN1 [Clonidine]
affinity for the imidazoline receptor [1]: high affinity
affinity for the adrenergic alpha-2 receptor [2]: high affinity

CN1Cc2c(Cl)cc(Cl)cc2C(c2ccc(S(=O)(=O)N=C(N)N)cc2)C1 (stereo not shown) [Example 1, N-Diaminomethylene-4-(6,8-dichloro-2-methyl-1,2,3,4-tetrahydro-isoquinolin-4-yl)benzenesulfonamide, dihydrochloride]
intrinsic effect on synaptic transmission ([3]; before tetanus): no intrinsic effect
potentiation of the EPSP 80 min after the stimulus ([3]; weak tetanus, 80 min after stimulus (control 113%)): 137 % of the baseline
IC50 [4]: 35 nM

Cc1csc(Cl)c1NC1=NCCN1 [tiamenidine]
inhibitory action on NHE-1 [5]: no relevant inhibitory actions
inhibitory action on NHE-2 [6]: no relevant inhibitory actions
inhibitory action on NHE-5 [7]: no relevant inhibitory actions
inhibitory action on NHE [8]: no relevant inhibitory actions
